One block for each molecule: values may come before it.
Molecular target: T1, 3-oxo-5-alpha-steroid 4-dehydrogenase 2 (Homo sapiens, UniProt P31213)
T1 sequence (P31213 whole entry): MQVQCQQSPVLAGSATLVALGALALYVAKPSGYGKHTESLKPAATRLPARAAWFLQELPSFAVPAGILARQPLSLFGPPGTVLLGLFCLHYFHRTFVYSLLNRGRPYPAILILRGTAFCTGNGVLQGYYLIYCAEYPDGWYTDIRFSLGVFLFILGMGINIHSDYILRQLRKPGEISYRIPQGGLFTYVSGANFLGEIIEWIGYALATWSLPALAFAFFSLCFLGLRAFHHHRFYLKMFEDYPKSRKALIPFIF
Test: Inhibitory activity against human prostatic Steroid 5-alpha-reductase

SMILES: CC(C)N(C(=O)[C@@H]1C[C@@H]2CCC3C4CCC(=O)N(C)[C@@]4(C)CCC3[C@@]2(C)C1)C(C)C (stereo partly drawn)
IC50: > 100 µM

SMILES: CN1C(=O)CC[C@@]2(C)C1CC[C@H]1[C@@H]3CC[C@H](O)[C@@]3(C)CC[C@@H]12 (stereo partly drawn)
IC50: > 0.43 µM

SMILES: CN1C(=O)CCC2C3CCC4[C@@H](O)CC[C@]4(C)C3CC[C@@]21C (stereo partly drawn)
IC50: 12 µM

The remaining molecules from weak to strong by IC50, led by results:

IC50: 40 µM
SMILES: CC(C)N(C(=O)[C@@H]1CC2CCC3C(CC[C@@]4(C)C3CCC(=O)N4C)[C@@]2(C)C1)C(C)C (stereo partly drawn)

IC50: 32 µM
SMILES: CN1C(=O)CCC2C3CC=C4C[C@@H](O)CC[C@]4(C)C3CC[C@@]21C (stereo partly drawn)

IC50: 15 µM
SMILES: CN1C(=O)CCC2C3CC[C@H]4CC(=O)CC[C@]4(C)C3CC[C@@]21C (stereo partly drawn)

IC50: 4 µM
SMILES: CN1C(=O)CCC2C3CC[C@H]4C[C@@H](O)CC[C@]4(C)C3CC[C@@]21C (stereo partly drawn)

IC50: 0.0086 µM
SMILES: CCN(CC)C(=O)[C@H]1CC[C@H]2[C@@H]3CC[C@H]4N(C)C(=O)CC[C@]4(C)[C@H]3CC[C@]12C

Reference: ChEMBL document CHEMBL1127773, “Inhibition of steroid 5-reductase by inverted, competitive inhibitors” (Bioorg Med Chem Lett, 1994)
